# Results published in patent publication US12207654B2, “Bactericidal agent for agricultural or horticultural use, plant disease control method, and product for plant disease control use” (Kureha Corporation, priority 2019, dated 2025).
# Where “and” joins values, the source holds several entries; their conditions need not be identical. Identical values can stand only once. Like-named read-outs stand apart in the source and are kept apart here.
# Legend:
# [1] = test system: Cercospora beticola; experiment: In vitro antimicrobial activity test in 96-well microplate (absorbance at 620 nm); assay type: cell-based; conditions: used alone
# [2] = test system: Fusarium graminearum; experiment: microbe, parasite or virus in culture; assay type: cell-based
# [3] = test system: Fusarium fujikuroi; experiment: In vitro antimicrobial activity test on PDA plate media (colony diameter); assay type: cell-based; conditions: used alone
# [4] = test system: Microdocum nivale; experiment: as above; assay type: cell-based; conditions: used alone
# [5] = test system: Pyrenophora graminea; experiment: as above; assay type: cell-based; conditions: used alone
# [6] = test system: Alternaria alternata apple pathotype; experiment: as above; assay type: cell-based; conditions: used alone
# [7] = test system: Glomerella cingulata; experiment: as above; assay type: cell-based
# [8] = test system: Gaeumannomyces graminis; experiment: as above; assay type: cell-based; conditions: used alone
# [9] = test system: Penicillium italicum; experiment: as above; assay type: cell-based
# [10] = test system: wheat leaf rust (Puccinia recondita); experiment: Controlling effect test against wheat leaf rust (foliar spray on potted wheat seedlings); assay type: in vivo; conditions: sprayed alone
# [11] = test system: Pyrenophola teres; experiment: In vitro antimicrobial activity test on PDA plate media (colony diameter); conditions: read-out: Actual fungal growth inhibition rate (%)
# Excerpt: Apart from this, Pyrenophola teres pre-cultivated on chemical-free plate media was punched out with a 4-mm diameter cork borer and inoculated on chemical-containing PDA plate media.
# In the above formula, R represents the fungal growth inhibition rate (%), dc represents the colony diameter on the chemical-free plate, and dt represents the colony diameter on the chemical-containing plate. […] Inhibition rate when mixed for use(theoretical value)=α+((100−α)×β/100
# In the above formula, α and β represent the inhibition rate when each compound is used alone.
# [12] = Fusarium graminearum, read-out: Actual fungal growth inhibition rate (%)
# [13] = Colletotrichum gloeosporioides, used alone, 0.50 ppm, read-out: Actual fungal growth inhibition rate (%)
# [14] = Pyrenophora graminea, 0.13 ppm, read-out: Actual fungal growth inhibition rate (%)
# [15] = Pyrenophora graminea, 0.50 ppm, read-out: Actual fungal growth inhibition rate (%)
# [16] = Alternaria alternata, 0.13 ppm, read-out: Actual fungal growth inhibition rate (%)
# [17] = Gaeumannomyces graminis, 0.13 ppm, read-out: Actual fungal growth inhibition rate (%)
# [18] = Gaeumannomyces graminis, 0.50 ppm, read-out: Actual fungal growth inhibition rate (%)
# [19] = Colletotrichum gloeosporioides, used alone, 0.01 ppm, read-out: Actual fungal growth inhibition rate (%)
# [20] = Colletotrichum gloeosporioides, used alone, 0.13 ppm, read-out: Actual fungal growth inhibition rate (%)
# [21] = Gaeumannomyces graminis, 0.002 ppm, read-out: Actual fungal growth inhibition rate (%)
compound,measurement,setting,value
"CC(C)c1ccc(Cl)cc1CN(C(=O)c1c(C(F)F)nn(C)c1F)C1CC1 [Isoflucypram, isoflucypram]",Actual growth inhibition rate,[1]; 0.008 ppm,7%
same,Actual growth inhibition rate,[1]; 0.04 ppm,3%
same,Actual growth inhibition rate,[1]; 0.2 ppm,0%
same,Actual growth inhibition rate,[1]; 1.0 ppm,48%
"CC(C)CC(C)c1sccc1NC(=O)c1cn(C)nc1C(F)(F)F (stereo not shown) [Penthiopyrad, penthiopyrad]",inhibition at 1.25 ppm,[2]; [12],7%
same,inhibition at 5 ppm,[2]; [12],22%
same,inhibition at 20 ppm,[2]; [12],28%
"Cn1cc(C(=O)Nc2ccc(F)cc2-c2ccc(Cl)c(Cl)c2)c(C(F)F)n1 [Bixafen, bixafen]",Actual fungal growth inhibition rate (%),"[2]; used alone, 0.10 ppm",6% and 0%
same,Actual fungal growth inhibition rate (%),[3]; 0.13 ppm,13%
same,Actual fungal growth inhibition rate (%),[3]; 0.50 ppm,19%
same,Actual fungal growth inhibition rate (%),[4]; 0.10 ppm,0%
same,Actual fungal growth inhibition rate (%),[5]; 1.56 ppm,75%
same,Actual fungal growth inhibition rate (%),[6]; 0.03 ppm,14%
"CO/N=C(/C1=NOCCO1)c1ccccc1Oc1ncnc(Oc2ccccc2Cl)c1F [Fluoxastrobin, fluoxastrobin, reference compound]",inhibition at 0.5 ppm,[7]; [13],48%
same,inhibition at 0.01 ppm,"[4]; 0.01 ppm, read-out: Actual fungal growth inhibition rate (%)",96%
same,inhibition at 0.13 ppm,[5]; [14],51%
same,inhibition at 0.5 ppm,[5]; [15],55%
same,Actual fungal growth inhibition rate (%),[5]; 0.13 ppm,46%
same,Actual fungal growth inhibition rate (%),[5]; 0.50 ppm,59%
same,inhibition at 0.13 ppm,[6]; [16],48%
same,inhibition at 0.5 ppm,"[6]; Alternaria alternata, 0.50 ppm, read-out: Actual fungal growth inhibition rate (%)",43%
"OC(Cc1ccccc1Cl)(Cn1nc[nH]c1=S)C1(Cl)CC1 (stereo not shown) [Prothioconazole, prothioconazole, reference compound]",inhibition at 0.13 ppm,[8]; [17],0%
same,inhibition at 0.5 ppm,[8]; [18],36%
same,inhibition at 0.01 ppm,[2]; [12],1%
same,inhibition at 0.03 ppm,[2]; [12],19%
same,inhibition at 0.01 ppm,[7]; [19],0%
same,inhibition at 0.03 ppm,"[7]; Colletotrichum gloeosporioides, used alone, 0.03 ppm, read-out: Actual fungal growth inhibition rate (%)",1%
same,inhibition at 0.13 ppm,[7]; [20],0%
same,inhibition at 0.5 ppm,[7]; [13],24%
same,inhibition at 0.13 ppm,"[9]; Penicillium italicum, used alone, 0.13 ppm, read-out: Actual fungal growth inhibition rate (%)",18%
same,inhibition at 0.13 ppm,"[9]; Penicillium italicum, single chemical at 0.13 ppm, read-out: Actual fungal growth inhibition rate (%)",19%
same,inhibition at 0.13 ppm,"[4]; 0.13 ppm, read-out: Actual fungal growth inhibition rate (%)",13%
same,inhibition at 0.5 ppm,[5]; [15],54%
same,inhibition at 0.13 ppm,[6]; [16],48%
"CON(C(=O)c1cn(C)nc1C(F)F)C(C)Cc1c(Cl)cc(Cl)cc1Cl (stereo not shown) [Pydiflumetofen, pydiflumetofen, reference compound]",Actual controlling rate,[10]; 0.63 g/ha,11%
same,Actual controlling rate,[10]; 1.25 g/ha,44%
same,Actual controlling rate,[10]; 2.5 g/ha,44%
same,Actual controlling rate,[10]; 5 g/ha,67%
same,Actual controlling rate,[10]; 10 g/ha,83%
COC(=O)C(O)(Cn1cncn1)c1ccc(Oc2ccc(Cl)cc2)cc1C(F)(F)F (stereo not shown) [Azole derivative I-122],Actual fungal growth inhibition rate (%),[8]; 0.01 ppm,0%
same,Actual fungal growth inhibition rate (%),[8]; 0.03 ppm,32%
same,Actual fungal growth inhibition rate (%),[8]; 0.13 ppm,70% and 57%
same,Actual fungal growth inhibition rate (%),[8]; 0.31 ppm,96%
same,Actual fungal growth inhibition rate (%),[8]; 0.50 ppm,97%
same,Actual fungal growth inhibition rate (%),[8]; 1.25 ppm,96%
same,Actual fungal growth inhibition rate (%),[2],83%
same,Actual fungal growth inhibition rate (%),"[7]; used alone, 0.01 ppm",8%
same,Actual fungal growth inhibition rate (%),"[7]; used alone, 0.03 ppm",14%
same,Actual fungal growth inhibition rate (%),"[7]; used alone, 0.13 ppm",45%
same,Actual fungal growth inhibition rate (%),"[7]; used alone, 0.50 ppm",82%
same,Actual fungal growth inhibition rate (%),[4]; 0.01 ppm,0%
same,Actual fungal growth inhibition rate (%),[4]; 0.03 ppm,0%
same,Actual fungal growth inhibition rate (%),[4]; 0.13 ppm,4%
same,Actual fungal growth inhibition rate (%),[5]; 0.13 ppm,75%
same,Actual fungal growth inhibition rate (%),[5]; 0.50 ppm,82%
same,Actual fungal growth inhibition rate (%),[6]; 0.13 ppm,0%
same,Actual fungal growth inhibition rate (%),[6]; 0.50 ppm,5%
"CCCN(CC)CC1COC2(CCC(C(C)(C)C)CC2)O1 (stereo not shown) [Spiroxamine, spiroxamine, reference compound]",inhibition at 0.002 ppm,[8]; [21],0%
same,inhibition at 0.13 ppm,[8]; [17],0%
same,inhibition at 0.01 ppm,"[5]; Pyrenophora graminea, 0.01 ppm, read-out: Actual fungal growth inhibition rate (%)",0%
same,inhibition at 0.03 ppm,"[5]; Pyrenophora graminea, 0.03 ppm, read-out: Actual fungal growth inhibition rate (%)",0%
COC(=O)C(O)(Cn1cncn1)c1ccc(Oc2ccc(Cl)cc2)cc1Br (stereo not shown) [Azole derivative I-228],Actual fungal growth inhibition rate (%),[8]; 0.13 ppm,89%
same,Actual fungal growth inhibition rate (%),[8]; 0.31 ppm,63%
same,Actual fungal growth inhibition rate (%),[8]; 1.25 ppm,67%
same,Actual fungal growth inhibition rate (%),[8]; 5.00 ppm,71%
same,Actual fungal growth inhibition rate (%),[2],39%
same,Actual fungal growth inhibition rate (%),"[7]; Glomerella cingulata, single chemical at 0.01 ppm",0%
same,Actual fungal growth inhibition rate (%),"[7]; Glomerella cingulata, single chemical at 0.03 ppm",16%
same,Actual fungal growth inhibition rate (%),"[7]; used alone, 0.01 ppm",2%
same,Actual fungal growth inhibition rate (%),"[7]; used alone, 0.03 ppm",12%
same,Actual fungal growth inhibition rate (%),"[7]; used alone, 0.50 ppm",82%
same,Actual fungal growth inhibition rate (%),"[9]; Penicillium italicum, single chemical at 0.13 ppm",56%
same,Actual fungal growth inhibition rate (%),[3]; 0.50 ppm,21%
same,Actual fungal growth inhibition rate (%),[4]; 1.25 ppm,56%
same,Actual fungal growth inhibition rate (%),[4]; 5.00 ppm,86%
same,Actual fungal growth inhibition rate (%),[5]; 0.50 ppm,84%
"CC(O)(Cn1cncn1)c1ccc(Oc2ccc(Cl)cc2)cc1C(F)(F)F (stereo not shown) [Mefentrifluconazole, mefentrifluconazole, reference compound]",Actual fungal growth inhibition rate (%),[8]; 0.002 ppm,0%
same,Actual fungal growth inhibition rate (%),[8]; 0.01 ppm,0%
same,Actual fungal growth inhibition rate (%),[8]; 0.03 ppm,19%
same,Actual fungal growth inhibition rate (%),"[7]; Glomerella cingulata, single chemical at 0.13 ppm",74%
same,Actual fungal growth inhibition rate (%),"[7]; used alone, 0.01 ppm",17%
same,Actual fungal growth inhibition rate (%),"[7]; used alone, 0.03 ppm",41%
same,Actual fungal growth inhibition rate (%),"[7]; used alone, 0.50 ppm",77%
same,Actual fungal growth inhibition rate (%),[4]; 0.01 ppm,1%
same,Actual fungal growth inhibition rate (%),[6]; 0.50 ppm,62%
COC(=O)C(O)(Cn1cncn1)c1ccc(Oc2ccc(C(F)(F)F)cc2)cc1Cl (stereo not shown) [Azole derivative I-23],Actual fungal growth inhibition rate (%),[8]; 0.01 ppm,0%
same,Actual fungal growth inhibition rate (%),[8]; 0.03 ppm,38%
same,Actual fungal growth inhibition rate (%),[8]; 0.08 ppm,92%
same,Actual fungal growth inhibition rate (%),[8]; 5.00 ppm,94%
same,Actual fungal growth inhibition rate (%),[2],79%
same,Actual fungal growth inhibition rate (%),"[7]; used alone, 0.03 ppm",9%
same,Actual fungal growth inhibition rate (%),"[7]; used alone, 0.13 ppm",31%
same,Actual fungal growth inhibition rate (%),"[7]; used alone, 0.50 ppm",61%
same,Actual fungal growth inhibition rate (%),"[9]; used alone, 0.01 ppm",6%
same,Actual fungal growth inhibition rate (%),"[9]; used alone, 0.03 ppm",12%
same,Actual fungal growth inhibition rate (%),"[9]; used alone, 0.13 ppm",35%
same,Actual fungal growth inhibition rate (%),"[9]; used alone, 0.50 ppm",52% and 43%
same,Actual fungal growth inhibition rate (%),[4]; 0.01 ppm,0%
same,Actual fungal growth inhibition rate (%),[4]; 0.13 ppm,4% and 10%
same,Actual fungal growth inhibition rate (%),[4]; 0.50 ppm,27% and 24%
same,Actual fungal growth inhibition rate (%),[5]; 0.08 ppm,73%
same,Actual fungal growth inhibition rate (%),[5]; 0.13 ppm,81%
same,Actual fungal growth inhibition rate (%),[5]; 0.31 ppm,92%
same,Actual fungal growth inhibition rate (%),[5]; 0.50 ppm,91%
same,Actual fungal growth inhibition rate (%),[5]; 1.25 ppm,95%
same,Actual fungal growth inhibition rate (%),[6]; 0.03 ppm,0%
same,Actual fungal growth inhibition rate (%),[6]; 0.13 ppm,0%
"CON=C(C(=O)OC)c1ccccc1CON=C(C)c1cccc(C(F)(F)F)c1 [Trifloxystrobin, trifloxystrobin, reference compound]",inhibition at 0.002 ppm,[8]; [21],8%
same,inhibition at 0.03 ppm,"[8]; Gaeumannomyces graminis, 0.03 ppm, read-out: Actual fungal growth inhibition rate (%)",5%
same,inhibition at 0.13 ppm,[8]; [17],11%
same,inhibition at 0.5 ppm,[8]; [18],15%
same,Actual fungal growth inhibition rate (%),[8]; 0.50 ppm,9%
same,inhibition at 0.5 ppm,[7]; [13],46%
same,inhibition at 0.5 ppm,"[9]; Penicillium italicum, used alone, 0.50 ppm, read-out: Actual fungal growth inhibition rate (%)",90%
same,inhibition at 0.002 ppm,"[3]; Fusarium fujikuroi, 0.002 ppm, read-out: Actual fungal growth inhibition rate (%)",0%
same,inhibition at 0.01 ppm,"[3]; Fusarium fujikuroi, 0.01 ppm, read-out: Actual fungal growth inhibition rate (%)",10%
same,inhibition at 0.03 ppm,"[4]; 0.03 ppm, read-out: Actual fungal growth inhibition rate (%)",65%
same,inhibition at 0.13 ppm,[5]; [14],54%
same,inhibition at 0.5 ppm,[5]; [15],54%
same,Actual fungal growth inhibition rate (%),[5]; 0.50 ppm,55%
same,inhibition at 0.13 ppm,[6]; [16],48%
"COc1ccnc(C(=O)N[C@H]2COC(=O)[C@H](Cc3ccccc3)[C@@H](OC(=O)C(C)C)[C@H](C)OC2=O)c1OCOC(=O)C(C)C [Fenpicoxamid, fenpicoxamid]",Actual growth inhibition rate,[1]; 0.04 ppm,28%
same,Actual growth inhibition rate,[1]; 0.2 ppm,59%
same,Actual growth inhibition rate,[1]; 1.0 ppm,60%
same,Actual growth inhibition rate,[1]; 5.0 ppm,100%
"CO/C=C(/C(=O)OC)c1ccccc1Oc1cc(Oc2ccccc2C#N)ncn1 [Azoxystrobin, azoxystrobin, reference compound]",Actual controlling rate,[10]; 1.25 g/ha,47%
"COC(=O)Nc1nc2ccccc2[nH]1 [Carbendazim, carbendazim]",inhibition at 0.625 ppm,[11],0%
same,inhibition at 2.5 ppm,[11],6%
same,inhibition at 10 ppm,[11],13%
same,inhibition at 40 ppm,[11],14%
"Cn1cc(C(=O)Nc2ccccc2-c2cc(F)c(F)c(F)c2)c(C(F)F)n1 [Fluxapyroxad, fluxapyroxad, reference compound]",Actual fungal growth inhibition rate (%),[8]; 0.10 ppm,0%
same,Actual fungal growth inhibition rate (%),[8]; 1.56 ppm,0% and 9%
"O=C(NCCc1ncc(C(F)(F)F)cc1Cl)c1ccccc1C(F)(F)F [Fluopyram, fluopyram, reference compound]",inhibition at 0.13 ppm,[7]; [20],3%
same,inhibition at 0.5 ppm,[7]; [13],9%
same,inhibition at 0.03 ppm,"[3]; Fusarium fujikuroi, 0.03 ppm, read-out: Actual fungal growth inhibition rate (%)",6%
same,inhibition at 0.5 ppm,"[3]; Fusarium fujikuroi, 0.50 ppm, read-out: Actual fungal growth inhibition rate (%)",21%
"CC1(C)CCC(Cc2ccc(Cl)cc2)C1(O)Cn1cncn1 (stereo not shown) [Metconazole, metconazole, reference compound]",inhibition at 0.001 ppm,"[7]; Colletotrichum gloeosporioides, used alone, 0.001 ppm, read-out: Actual fungal growth inhibition rate (%)",4%
same,inhibition at 0.003 ppm,"[7]; Colletotrichum gloeosporioides, used alone, 0.003 ppm, read-out: Actual fungal growth inhibition rate (%)",7%
same,inhibition at 0.01 ppm,[7]; [19],28%
